The compound `CC1CCC(O)([C@H](C[C@H](O)[C@H](Cc2ccccc2)NC(=O)c2cnc3ccccc3n2)C(N)=O)C1` (stereo partly drawn) [Example 282, Quinoxaline-2-carboxylic acid [1(S)-benzyl-4(S)-carbamoyl-2(S)-hydroxy-4-(1-hydroxy-3-methyl-cyclopentyl)-butyl]-amide] came in with a melting point of 187 to 188 °C.
In the case of `CCSCCNC(=O)[C@H](CCC(C)(C)F)C[C@H](O)[C@H](Cc1ccccc1)NC(=O)c1cnc2ccccc2n1` [Example 218, Quinoxaline-2-carboxylic acid [1(S)-benzyl-4(R)-(2-ethylsulfanyl-ethylcarbamoyl)-7-fluoro-2(S)-hydroxy-7-methyl-octyl]-amide], the melting point lay within 78 to 79 °C.
As to `CC(C)(F)CC[C@H](C[C@H](O)[C@H](Cc1ccccc1)NC(=O)c1cnc2ccccc2n1)C(=O)NCCc1ccc(S(N)(=O)=O)cc1` [Example 216, Quinoxaline-2-carboxylic acid {1(S)-benzyl-7-fluoro-2(S)-hydroxy-7-methyl-4(R)-[2-(4-sulfamoyl-phenyl)-ethylcarbamoyl]-octyl}-amide], the melting point is 207 to 210 °C.
As for `CC(C)(F)CC[C@H](C[C@H](O)[C@H](Cc1ccccc1)NC(=O)c1cnc2ccccc2n1)C(=O)NCC1CCCO1` (stereo partly drawn) [Example 240, Quinoxaline-2-carboxylic acid {1(S)-benzyl-7-fluoro-2(S)-hydroxy-7-methyl-4(R)-[(tetrahydrofuran-2-ylmethyl)-carbamoyl]-octyl}-amide], the figure is 111 to 115 °C.
As for `CC1CCC(O)([C@H](C[C@H](O)[C@H](Cc2ccccc2)NC(=O)c2cnc3ccccc3n2)C(=O)NO)CC1` (stereo partly drawn) [Example 283, Quinoxaline-2-carboxylic acid [1(S)-benzyl-2(S)-hydroxy-4(S)-hydroxycarbamoyl-4-(1-hydroxy-4-methyl-cyclohexyl)-butyl]-amide], the melting point was in the range of 114 to 116 °C.
Compound `CC1CC(C)CC([C@@H](C[C@H](O)[C@H](Cc2ccccc2)NC(=O)c2cnc3ccccc3n2)C(N)=O)C1` (stereo partly drawn) [Example 210, Quinoxaline-2-carboxylic acid [1(S)-benzyl-4(R)-carbamoyl-4-(3,5-dimethyl-cyclohexyl)-2(S)-hydroxy-butyl]-amide] had a melting point of 221 to 222 °C.
In turn, `O=C(N[C@@H](Cc1ccccc1)[C@@H](O)C[C@@H](Cc1ccccc1)C(=O)NO)c1cnc2ccccc2n1` [Example 276, Quinoxaline-2-carboxylic acid (1(S)-benzyl-2(S)-hydroxy-4(R)-hydroxycarbamoyl-5-phenyl-pentyl)-amide] gave a melting point of 190 to 192 °C.
The same measure for `NC(=O)[C@H](Cc1ccccc1Cl)C[C@H](O)[C@H](Cc1ccccc1)NC(=O)c1cnc2ccccc2n1` [Example 274, Quinoxaline-2-carboxylic acid [1(S)-benzyl-4(R)-carbamoyl-5-(2-chloro-phenyl)-2(S)-hydroxy-pentyl]-amide]: 182 to 185 °C; for `COc1cc(CCNC(=O)[C@H](CCC(C)(C)F)C[C@H](O)[C@H](Cc2ccccc2)NC(=O)c2cnc3ccccc3n2)cc(OC)c1` [Example 232, Quinoxaline-2-carboxylic acid {1(S)-benzyl-4(R)-[2-(3,5-dimethoxy-phenyl)-ethylcarbamoyl]-7-fluoro-2(S)-hydroxy-7-methyl-octyl}-amide]: 109 to 112 °C; for `CNC(=O)[C@H](CC(C)C)C[C@H](O)[C@H](Cc1ccc(F)cc1)NC(=O)c1cnc2ccccc2c1` [Example 89, Quinoline-3-carboxylic acid [1(S)-(4-fluoro-benzyl)-2(S)-hydroxy-6-methyl-4(R)-methylcarbamoyl-heptyl]-amide]: 184 to 186 °C.
Consider `CC(C)(F)CC[C@H](C[C@H](O)[C@H](Cc1ccc(I)cc1)NC(=O)c1cnc2ccccc2n1)C(N)=O` [Example 250, Quinoxaline-2-carboxylic acid [4(R)-carbamoyl-7-fluoro-2(S)-hydroxy-1(S)-(4-iodo-benzyl)-7-methyl-octyl]-amide], for which the melting point was in the range of 185.5 to 187.5 °C.
Compound `CNC(=O)[C@H](CC(C)C)C[C@H](O)[C@H](Cc1ccc(OCc2ccccc2)cc1)NC(=O)c1cnc2ccccc2c1` [Example 40, Quinoline-3-carboxylic acid [1(S)-(4-benzyloxy-benzyl)-2(S)-hydroxy-6-methyl-4(R)-methylcarbamoyl-heptyl]-amide] gave a melting point of 178 to 179 °C.
On to `CC(C)(F)CC[C@H](C[C@H](O)[C@H](Cc1ccccc1)NC(=O)c1cnc2ccccc2n1)C(=O)N1CCC[C@H]1CO` [Example 239, Quinoxaline-2-carboxylic acid [1(S)-benzyl-7-fluoro-2(S)-hydroxy-4(R)-(2(S)-hydroxymethyl-pyrrolidine-1-carbonyl)-7-methyl-octyl]-amide], for which the melting point was 217 to 219 °C.
Turning to `NC(=O)[C@@H](Cc1ccc(Cl)c(Cl)c1)C[C@H](O)[C@H](Cc1ccccc1)NC(=O)c1cnc2ccccc2n1` [Example 279, Quinoxaline-2-carboxylic acid [1(S)-benzyl-4(S)-carbamoyl-5-(3,4-dichloro-phenyl)-2(S)-hydroxy-pentyl]-amide], the melting point was 199 to 201 °C.
As for `COc1cccc(C[C@H](C[C@H](O)[C@H](Cc2ccccc2)NC(=O)c2cnc3ccccc3n2)C(N)=O)c1` [Example 299, Quinoxaline-2-carboxylic acid [1(S)-benzyl-4(R)-carbamoyl-2(S)-hydroxy-5-(3-methoxy-phenyl)-pentyl]-amide], the melting point fell in the range of 147 to 148 °C.
`O=C(N[C@@H](Cc1ccccc1)[C@@H](O)C[C@H](C(=O)NO)C1(O)CCCC1)c1cnc2ccccc2n1` [Example 281, Quinoxaline-2-carboxylic acid [1(S)-benzyl-2(S)-hydroxy-4(S)-hydroxycarbamoyl-4-(1-hydroxy-cyclopentyl)-butyl]-amide] showed a melting point of 110 to 112 °C.
Turning to `CC1CC([C@H](C[C@H](O)[C@H](Cc2ccccc2)NC(=O)c2cnc3ccccc3n2)C(N)=O)CC(C)O1` (stereo partly drawn) [Example 244, Quinoxaline-2-carboxylic acid [1(S)-benzyl-4(S)-carbamoyl-4-(2,6-dimethyl-tetrahydro-pyran-4-yl)-2(S)-hydroxy-butyl]-amide], the melting point lay within 195 to 198 °C.
For the compound `Cc1cccc(C[C@H](C[C@H](O)[C@H](Cc2ccccc2)NC(=O)c2cnc3ccccc3n2)C(N)=O)c1` [Example 293, Quinoxaline-2-carboxylic acid (1(S)-benzyl-4(R)-carbamoyl-2(S)-hydroxy-5-m-tolyl-pentyl)-amide], the melting point was 178 to 179 °C.
As for `CNC(=O)[C@H](CCC(C)C)C[C@H](O)[C@H](Cc1cccc(F)c1)NC(=O)c1cnc2ccccc2n1` [Example 134, Quinoxaline-2-carboxylic acid [1(S)-(3-fluoro-benzyl)-2(S)-hydroxy-7-methyl-4(R)-methylcarbamoyl-octyl]-amide], the figure is 158.5 to 159.5 °C.
As to `CC(C)(F)CC[C@H](C[C@H](O)[C@H](Cc1ccccc1)NC(=O)c1cnc2ccccc2n1)C(=O)NCc1cccs1` [Example 213, Quinoxaline-2-carboxylic acid {1(S)-benzyl-7-fluoro-2(S)-hydroxy-7-methyl-4(R)-[(thiophen-2-ylmethyl)-carbamoyl]-octyl}-amide], the melting point lay within 174 to 175 °C.
`NC(=O)[C@@H](C[C@H](O)[C@H](Cc1ccccc1)NC(=O)c1cnc2ccccc2n1)C1(O)C2CC3CC(C2)CC1C3` (stereo partly drawn) [Example 295, Quinoxaline-2-carboxylic acid [1(S)-benzyl-4(S)-carbamoyl-2(S)-hydroxy-4-(2-hydroxy-adamantan-2-yl)-butyl]-amide] yielded a melting point of 206 to 207 °C.
As for `NC(=O)[C@H](Cc1ccccc1)C[C@H](O)[C@H](Cc1ccccc1)NC(=O)c1cnc2c(c1)CCC2` [Example 286, 6,7-Dihydro-5H-[1]pyrindine-3-carboxylic acid (1(S)-benzyl-4(R)-carbamoyl-2(S)-hydroxy-5-phenyl-pentyl)-amide], the figure is 182 to 186 °C.
Take `CC(C)(F)CC[C@H](C[C@H](O)[C@H](Cc1ccccc1)NC(=O)c1cnc2ccccc2n1)C(=O)NCc1ccncc1` [Example 217, Quinoxaline-2-carboxylic acid {1(S)-benzyl-7-fluoro-2(S)-hydroxy-7-methyl-4(R)-[(pyridin-4-ylmethyl)-carbamoyl]-octyl}-amide]: the melting point fell in the range of 100 to 104 °C.
In the case of `NC(=O)[C@@H](C[C@H](O)[C@H](Cc1ccccc1)NC(=O)c1cnc2ccccc2c1)C1CCCCC1` [Example 261, Quinoline-3-carboxylic acid (1(S)-benzyl-4(S)-carbamoyl-4-cyclohexyl-2(S)-hydroxy-butyl)-amide], the melting point worked out at 231 °C.
Compound `CNC(=O)[C@H](CC1CCCCC1)C[C@H](O)[C@H](Cc1ccc(Cl)cc1)NC(=O)c1cnc2ccccc2c1` [Example 71, Quinoline-3-carboxylic acid [1(S)-(4-chloro-benzyl)-5-cyclohexyl-2(S)-hydroxy-4(R)-methylcarbamoyl-pentyl]-amide] showed a melting point of 198 to 201 °C.
Regarding `CC(C)C[C@H](C[C@H](O)C(Cc1ccccc1)NC(=O)c1cnc2ccccc2c1)C(=O)NCCO` (stereo partly drawn) [Example 33, Quinoline-3-carboxylic acid [1-benzyl-2(S)-hydroxy-4(R)-(2-hydroxy-ethylcarbamoyl)-6-methyl-heptyl]-amide], the melting point was in the range of 158 to 162 °C.
The compound `CC1(C)CCC(O)([C@H](C[C@H](O)[C@H](Cc2ccccc2)NC(=O)c2cnc3ccccc3n2)C(=O)NO)CC1` [Example 305, Quinoxaline-2-carboxylic acid [1(S)-benzyl-2(S)-hydroxy-4(S)-hydroxycarbamoyl-4-(1-hydroxy-4,4-dimethyl-cyclohexyl)-butyl]-amide] registered a melting point of 118 to 123 °C.
Consider `NC(=O)[C@@H](C[C@H](O)[C@H](Cc1ccccc1)NC(=O)c1cnc2ccccc2n1)C1Cc2ccccc2C1` [Example 192, Quinoxaline-2-carboxylic acid (1(S)-benzyl-4(S)-carbamoyl-2(S)-hydroxy-4-indan-2-yl-butyl)-amide], for which the melting point fell in the range of 190 to 191 °C.

For the origin of these results see patent publication US20040087571A1, “Methods of using CCR1 antagonists as immunomodulatory agents” (Pfizer Inc, priority 2002, published 2004).
